Experimental data reported in EP4050002A1, “ANTI-PROLIFERATIVE AGENTS” (First Health Pharmaceuticals B.V., priority 2021, dated 2022).

Key:
[1] = biological target: DDX3X (Homo sapiens, UniProt O00571); test: Helicase assay (unwinding of 18/36mer dsRNA); assay type: biochemical; parameters: host or cells: 293T cells (transient transfection, anti-HA immunoprecipitation, protein kept on beads); settings: 50, 250 and 500 µM, in presence of ATP
Description: The DDX3X protein was obtained by immunoprecipitation from 293T cells (3x10^5) were seeded in 6-well plates and, after 24h, transfected with 1 µg of HA-DDX3 (Addgene plasmid # 44975) by using the Lipofectamine reagent (Thermo Fischer Scientific). After 36 h, cells were lysed in NP-40 Lysis Buffer (20 mM HEPES pH=7.5, 10 mM EGTA pH=8, 40 mM β-glycerolphosphate, 1% NP40, 2.5 mM MgCl2, 2 mM Orthovanadate, 2 mM NaF, 1 mM DTT, and 1X protease inhibitors mixture) and 2 mg of proteins were immunoprecipitated with anti-HA antibodies (Covance) in NP40 lysis buffer. Immunoprecipitated samples were washed twice with lysis buffer and one time in helicase reaction buffer (50 mM Tris HCl pH=8, 1 mM DTT, 5% glycerol, 10 mM MgCl2). Beads were then resuspended in 100 µl in helicase reaction buffer. […]
Ultimately, reactions were performed in a final volume 100 µl of helicase reaction buffer plus ATP 4 mM, 30 µl of beads used to immunoprecipitate HA-DDX3X, 20 nM of 18/36mer dsRNA and 100 nM of competitor at 37°C for 1 hour and stopped by adding 10 µl of a stopping solution (EDTA 60 mM pH=8, 40% glycerol, 0.6% SDS, 1% Orange G). […] Quantification of the ssRNA was performed by the ImageJ software (version 1.53, NIH). […]

[2] = test system: A549 Red-FLuc; test: Cytotoxicity, cell count method; assay type: cell-based; settings: Homo sapiens, 72 hours of incubation
Description: The anti-tumor activity of the compounds of the present invention was evaluated as the effect on the proliferation and survival of tumor cells by counting the number of living cells in presence or absence of the compounds ("cell count method"), and as the effect on the viability and metabolic activity of the cells, by using particular substrates that are converted by cellular enzymes into coloured or luminescent products, proportionally with metabolic activity and state of the cell, such as the MTS tetrazolium compound ("MTS method") or luciferin ("ATP-based method") respectively.
Cells were seeded at 3 to 5 x 10^4 cells/well density depending on cell lines and maintained at 37°C in 5% CO2. After 24 hours cells were treated with ascending concentrations of the investigational compounds and the reference (5-fluoro-Uracyl) in a range from 0 to 100 µM. Compounds were dissolved in DMSO which final concentration in each well was 0.5% v:v. After 72 h of incubation with compounds, the cells were detached with trypsin and re-suspended in 1 ml of complete medium; the cell number was evaluated using a Z2 Coulter Counter ("cell count method") (Attallah and Johnson, A simple highly sensitive methods for the determination of cell viability using an electronic particle analyzer, Coulter counter J. Immunol. Methods. 1981, 41, 155; Leonardi et al., Activated kinase screening identifies the IKBKE oncogene as a positive regulator of autophagy. Autophagy, 2019, 15, 312). Alternatively, after the 72 hours of incubation with compounds, the MTS solution (CellTiter 96® AQueous One Solution Cell Proliferation Assay) is added to each well and absorbance at 490 nm wavelength is read after 2 hours of incubation ("MTS method"). Results in Tables 8-13, 17, 18 were obtained with the cell count method. Results in Tables 14-15 were obtained with the MTS method. Results in Table 16 were obtained with ATP-based method.

Chain of DDX3X (O00571 whole entry): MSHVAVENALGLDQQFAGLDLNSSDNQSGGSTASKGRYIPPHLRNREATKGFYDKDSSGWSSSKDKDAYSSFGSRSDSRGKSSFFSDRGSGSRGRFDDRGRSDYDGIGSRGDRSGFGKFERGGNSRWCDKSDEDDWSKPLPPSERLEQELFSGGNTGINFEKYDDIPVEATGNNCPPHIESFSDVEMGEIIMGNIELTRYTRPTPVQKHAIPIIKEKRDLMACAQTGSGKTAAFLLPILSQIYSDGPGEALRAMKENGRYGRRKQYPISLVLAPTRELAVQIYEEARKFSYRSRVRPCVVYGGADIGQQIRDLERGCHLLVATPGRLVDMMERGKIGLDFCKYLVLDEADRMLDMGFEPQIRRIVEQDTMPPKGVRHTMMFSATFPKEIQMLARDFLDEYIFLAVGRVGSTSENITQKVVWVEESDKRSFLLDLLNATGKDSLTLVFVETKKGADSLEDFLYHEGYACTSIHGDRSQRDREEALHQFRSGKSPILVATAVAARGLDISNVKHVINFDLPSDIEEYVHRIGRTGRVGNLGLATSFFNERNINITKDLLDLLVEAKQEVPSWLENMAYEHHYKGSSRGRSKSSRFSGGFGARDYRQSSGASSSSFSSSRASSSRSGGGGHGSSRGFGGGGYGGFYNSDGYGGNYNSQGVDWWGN

In the case of `CCCCc1cn(-c2ccc(-c3nnc(-c4cccc(C(=O)O)c4)o3)cc2)nn1` [Compound 16, 3-(5-(4-(4-butyl-1H-1,2,3-triazol-1-yl)phenyl)-1,3,4-oxadiazol-2-yl)benzoic acid], the “inhibitory effect on DDX3X helicase activity” value [1] is reported as “inhibitory effect on DDX3X helicase activity” and the IC50 [2] is reported as 18.1 µM.
